Experimental data reported in paper PMC12392461, “Beyond Estrogenicity: A Comparative Assessment of Bisphenol A and Its Alternatives in In Vitro Assays Questions Safety of Replacements” (Environmental Science & Technology, 2025).
Read-outs that look alike come from different tables or passages of the source.

Columns and labels:
SH-SY5Y cells [1] = experiment: cells; settings: for EC10: Homo sapiens, SH-SY5Y; for EC10, linear / logEC10: NOI bioassay, dosing range all; for EC10, linear: linear model; for logEC10: log-logistic model; for Specificity ratio (SRbaseline) SRNOI: against baseline cytotoxicity; for Relative effect potency REPNOI: relative to BPA; for Specificity ratio (SRcytotoxicity) SRNOI: against experimental cytotoxicity
Description: (§1) All bioassay media components and the ERα-UAS-bla GripTite and PPARγ-UAS-bla cells were obtained from Thermo Fisher Scientific (Waltham, MA, USA). AREc32 reporter gene cells based on MCF7 were provided by C. Roland Wolf (Cancer Research UK); AhR CALUX cells (H4L7.5c2 derived from H4IIe) were provided by Michael Denison (UC Davis, USA); and SH-SY5Y cells were purchased from Sigma-Aldrich.
(§2) Cell culture conditions and bioassay protocols including response detection are provided in Text S2.1–2.4 and Table S3. − Cell viability was determined from cell confluency using an IncuCyte S3 Live-Cell Analysis System (Sartorius AG, Essen, Germany) before and after exposure, except for SH-SY5Y cells (live–dead staining with Nuclear Green LcS1 and propidium iodide, Abcam, UK). For metabolic activation experiments, cell viability was assessed using the ToxBLAzer DualScreen Kit (Thermo Fisher Scientific) to capture the remaining toxicity in ERα-UAS-bla GripTite after treatment with the aCYP catalyst (details in Text S2.4).
(§3) For ARE, the concentration that triggered an induction ratio of 1.5 (ECIR1.5) was used as the benchmark value, as detailed in Text S2.5. IC10 values also served as a threshold for data analysis in all assays; only concentrations below IC10 were considered when deriving EC10 or ECIR1.5. […]
(§4) S2: Cell culture and bioassays
(§5) S2.1: Cell Culturing Conditions
(§6) All suppliers and sources are given in detail in SI-Excel S3. The bioassay media for the different assays were prepared as follows: Assay medium for ER alpha-UAS-bla GripTite (ERα) and PPAR gamma-UAS-bla 293H (PPARγ) was prepared with 98% Opti-MEM, supplemented with 2% charcoal-stripped FBS, and 100 U/mL penicillin-streptomycin. MitoOxTox and AhR assay medium was comprised of 90% DMEM with GlutaMAX, supplemented with 10% FBS, and 100 U/mL penicillin-streptomycin. Neurotoxicity assay medium consisted of the neurobasal […]
(§7) (1 picture or pasted object on this page, not shown here) […]
(§8) medium, supplemented with 2% B-27 Supplement and 2 mM GlutaMAX Supplement. SH - SY5Y cells were differentiated with 10 µM all-trans retinoic acid prior to the assay.
(§9) S2.2: Cell Seeding and Incubation. For all bioassays, cell suspensions in the respective assay medium were dispensed into each well of 384-well plates using a MultiFlo Dispenser (Biotek, (now Agilent), Winooski, VT, U.S.). After seeding, the plates were incubated at 37° C and 5% CO₂ for […]. The final cell densities and plate types were as follows: Black poly-D-lysine coated 384-well plates (Product No. 354663, Corning Inc., NYC, U.S.) were used for PPARγ:
(§10) 6500 cells/well, ERα: 5000 cells/well. White 384-well plates with a clear bottom (Product No.
(§11) 781098, Greiner, Kremsmünster, Austria) were utilized for the MitoOxTox assay: 2650

[2] = system: Antioxidant response element; experiment: MitoOxTox: oxidative stress response in AREc32; settings: for EC10, linear / logEC10: Bioassay ARE, dosing range all; for EC10, linear: linear model fit; for logEC10: log-logistic model fit; for Specificity ratio (SRbaseline) SRARE: against baseline cytotoxicity; for Specificity ratio (SRcytotoxicity) SRARE: against experimental cytotoxicity; for ECIR1.5, ARE: effect; for ECIR1.5, ARE / ECIR1.5, ARE (M): induction ratio 1.5; for log(1/EC10) AREc32: input of the ToxPi score, values up to 1.00; for SR (ARE): specificity ratio
Description: as §1, §2, §3, §4, §5, §6, §7, §8, §9, §10, §11

SH-SY5Y cells [3] = settings: for Toxic ratio (TR) TRNOI: against baseline cytotoxicity; for IC10, SH-S5Y5, NOI: cytotoxicity, NOI assay cells
Description: as §2, with “S2.4). […]” for “S2.4).”
We measured the cytotoxicity of BPA and its alternatives in HEK293H (PPARγ), HEK293T (ERα), H4IIe (AhR CALUX), MCF7 (ARE/MMP), and differentiated SH-SY5Y cells (Table S6). […]
as §8
S2.2: Cell Seeding and Incubation. For all bioassays, cell suspensions in the respective assay medium were dispensed into each well of 384-well plates using a MultiFlo Dispenser (Biotek, (now Agilent), Winooski, VT, U.S.). After seeding, the plates were incubated at 37° C and 5% […]
NYC, U.S.) for AhR: 3250 cells/well. Black Collagen I coated plates were used (Product No.
S2.3: Chemical Dosing and Assay Analysis Procedures. The dosing procedure and high-throughput assay workflow have been described in detail before. 9 The dosing concentrations […]
Stock solutions were then either added directly to the respective cell culture medium or evaporated under nitrogen, followed by replenishment with fresh medium. The final solvent content in each well was kept below 1% for methanol, 0% for acetonitrile.
Dosing plates were prepared as 11 -step serial dilutions using a Hamilton Microlab Star robotic system (Hamilton, Bonaduz, Switzerland), and chemicals were dosed in duplicates by transferring 10 μL twice from the dosing plates to the cell plates . After quantifying cell confluency as described in S2. 4., the exposed cells were incubated at 37° C and 5% CO₂ for an additional 24 h. All chemicals were tested in all assays with at least three independent […]
S2.4: Cell Viability Measurement s and bioanalytical protocols . The confluency as a measure of cell viability was determined with an IncuCyte S3 Live -Cell Analysis System (Sartorius AG, Essen, Germany). With this method the confluency of cells in a microscopy image are normalized to control wells without cells and compared before and after 24 hours of exposure.
This method has been described previously 13. Cell viability of SH-SY5Y cells was measured […]
propidium iodide (PI, Abcam, Cambridge, U.K.).14 Nuclear Green LCS1 is a membrane-permeable dye that stains the nuclei of all cells, whereas PI only enters cells with compromised membrane integrity (non-viable cells). After staining, live cells show green nuclei without red fluorescence, while dead cells display both green and red nuclear fluorescence due to PI […]
intercalation. […]

[4] = read-out: EC10, linear transformed
[5] = NOI bioassay cytotoxicity, dosing range all
[6] = NOI bioassay cytotoxicity, dosing range all, linear model
[7] = NOI bioassay cytotoxicity, dosing range all, log-logistic model
[8] = Arec32, read-out: EC10, linear transformed
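Throughout, for Relative effect potency REPNOI: EC10 of BPA divided by EC10 of the test compound so values above 1 mean more potent.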
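Throughout, for Specificity ratio (SRbaseline) SRNOI: ratio of predicted baseline cytotoxicity IC10 to the neurite outgrowth inhibition EC10.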

Row | Structure (SMILES) | EC10 (SH-SY5Y cells [1]; [4]) | EC10, linear (SH-SY5Y cells [1]) | logEC10 (SH-SY5Y cells [1]) | EC10, linear [2] | logEC10 [2] | IC10, linear transformed (SH-SY5Y cells [3]; [5]) | IC10, linear (SH-SY5Y cells [3]; [6]) | logIC10 (SH-SY5Y cells [3]; [7]) | Toxic ratio (TR) TRNOI (SH-SY5Y cells [3]) | IC10, SH-S5Y5, NOI (SH-SY5Y cells [3]) | EC10 (SH-SY5Y cells [1]; read-out: EC10, linear) | EC10 (SH-SY5Y cells [1]; read-out: EC10, NOI) | EC10 (SH-SY5Y cells [1]; read-out: EC10, NOI (M)) | EC10 (SH-SY5Y cells [1]; read-out: logEC10) | Specificity ratio (SRbaseline) SRNOI (SH-SY5Y cells [1]) | Relative effect potency REPNOI (SH-SY5Y cells [1]) | EC10 ([2]; Arec32, read-out: EC10, linear) | EC10 [2, 8] | also measured
1 | CC(C)c1cc(C(C)(C)c2ccc(O)c(C(C)C)c2)ccc1O [BPG, 2,2-Bis(4-hydroxy-3-isopropylphenyl)propane] | 2.67e-05 M | no effect | no effect | no effect | no effect | 3.61E-05 | no cytotoxicity | -4.44 | 0.08 | 36.1 µM | – | – | – | – | – | – | – | – | –
2 | CC(C)(c1ccc(O)c(-c2ccccc2)c1)c1ccc(O)c(-c2ccccc2)c1 [BPPH, 2,2-Bis(2-hydroxy-5-biphenylyl)propane] | 2.12e-05 M | – | no effect | no effect | no effect | 2.31E-05 | no cytotoxicity | -4.64 | 0.08 | 23.1 µM | 9.84e-06 M | – | – | – | – | – | – | – | –
3 | O=S(=O)(c1ccc(O)cc1)c1ccc(O)cc1 [BPS, 4,4'-Sulfonyldiphenol] | 0.000411 M | no effect | no effect | no effect | no effect | – | 1.85E-04 | -3.71 | – | 195 µM | – | – | – | – | – | – | – | – | –
4 | C=CCOc1ccc(S(=O)(=O)c2ccc(O)cc2)cc1 [BPS-MAE, 4-[[4-(Allyloxy)phenyl]sulfonyl]phenol] | 2.55e-05 M | – | – | no effect | no effect | 1.36E-04 | no cytotoxicity | -3.87 | – | 136 µM | 6.61e-05 M | 2.52e-05 M | 2.52e-05 M | 2.51e-05 M | – | – | – | – | –
5 | O=S(=O)(c1ccc(O)cc1)c1ccc(OCc2ccccc2)cc1 [BPS-MPE, 4-[4-(benzyloxy)benzenesulfonyl]phenol] | 0.000247 M | – | – | – | no effect | – | no cytotoxicity | no cytotoxicity | – | – | 0.000638 M | 0.000247 M | 0.000247 M | 0.000245 M | 0.11 | 0.21 | 55.7 µM | 133 µM | –
6 | Oc1ccc(Sc2ccc(O)cc2)cc1 [BPT, 4,4'-Thiodiphenol] | – | no effect | no effect | – | masked by cytotoxicity | – | 1.40E-04 | no cytotoxicity | – | 140 µM | – | – | – | – | – | – | 85.6 µM | 1500 µM | –
7 | Cc1ccc(S(=O)(=O)NC(=O)Nc2ccc(Cc3ccc(NC(=O)NS(=O)(=O)c4ccc(C)cc4)cc3)cc2)cc1 [BTUM, 4,4'-Bis(p-tolylsulfonylureido)diphenylmethane] | 6.48e-05 M | no effect | – | no effect | no effect | – | no cytotoxicity | no cytotoxicity | – | – | – | 6.48e-05 M | 6.48e-05 M | 6.46e-05 M | 1.03 | 0.78 | – | – | –
8 | COC(=O)C(c1ccc(O)cc1)c1ccc(O)cc1 [Bz, Methyl bis(4-hydroxyphenyl)acetate] | 0.0004 M | no effect | – | no effect | no effect | 5.07E-04 | 3.73E-04 | -3.30 | 0.85 | 373 µM | – | – | – | 0.00038 M | – | – | – | 2200 µM | –
9 | O=C(OCc1ccccc1)c1ccc(O)cc1 [BzPB, Benzyl 4-hydroxybenzoate] | 0.000412 M | no effect | no effect | – | – | 3.89E-04 | no cytotoxicity | -3.41 | 0.07 | 389 µM | – | – | – | – | – | – | 32.1 µM | 16.7 µM | EC10 ([2]; Arec32, read-out: logEC10): 19.5 µM; Specificity ratio (SRbaseline) SRARE [2]: 1.73; Specificity ratio (SRcytotoxicity) SRARE [2]: 4.62; ECIR1.5, ARE [2]: 19.4 µM; ECIR1.5, ARE (M) [2]: 1.94 × 10^–5 M; log(1/EC10) AREc32 [2]: 1.00; SR (ARE) [2]: < 10
10 | CC(C)Oc1ccc(S(=O)(=O)c2ccc(O)cc2)cc1 [D8, 4-((4-Isopropoxyphenyl)sulfonyl)phenol] | 0.000186 M | – | – | – | – | – | – | – | 0.22 | – | 0.000353 M | 0.000191 M | 0.000191 M | 0.000191 M | 0.56 | 0.27 | 1080 µM | 932 µM | Specificity ratio (SRcytotoxicity) SRNOI (SH-SY5Y cells [1]): 2.56; EC10 ([2]; Arec32, read-out: logEC10): 1230 µM; Specificity ratio (SRbaseline) SRARE [2]: 0.11; Specificity ratio (SRcytotoxicity) SRARE [2]: 1.77; ECIR1.5, ARE [2]: 1220 µM; ECIR1.5, ARE (M) [2]: 1.22 × 10^–3 M; log(1/EC10) AREc32 [2]: 0.62; SR (ARE) [2]: < 10; IC10, linear (SH-SY5Y cells [3]): no cytotoxicity; logIC10 (SH-SY5Y cells [3]; human, 24 h): -3.31
11 | Cc1ccc(S(=O)(=O)NC(=O)Nc2cccc(OS(=O)(=O)c3ccc(C)cc3)c2)cc1 [Pergafast, N-(p-toluenesulfonyl)-N'-(3-(p-toluenesulfonyloxy)phenyl)urea] | 1.52e-05 M | – | – | no effect | no effect | – | 4.94E-05 | no cytotoxicity | 2.23 | 49.4 µM | 1.25e-05 M | 1.25e-05 M | 1.25e-05 M | 1.51e-05 M | 8.80 | 4.06 | – | – | Specificity ratio (SRcytotoxicity) SRNOI (SH-SY5Y cells [1]): 3.95
